In test [1] the test system is Candida albicans. The test is described as follows: growth inhibition of resistant C. albicans, dose response, CaCi-8, fluconazole, Alamar Blue, dry powder (AID 488807). The class given is functional, organism-based.
For test [2], the system named is NIH3T3. The experiment in a line: cytotoxicity in NIH-3T3 fibroblasts, dose response, cytotoxicity control for antifungal drug resistance project, cell-based, Alamar Blue, fluconazole, dry powder (AID 488809). Conditions: Mus musculus. The class given is functional.
Test [3] concerns the target Beta-2 adrenergic receptor (Homo sapiens, UniProt P07550). The experiment in a line: beta2AR agonists driving receptor internalization, dose response, cell-based, FAP fluorogen, flow cytometry, cherry pick 1 (AID 588763). The class given is functional.
Test [4] relates to Escherichia coli. The test is described as follows: microbe, parasite or virus in culture.
Test [5] can be described thus: cells. The class given is functional, cell-based.
Test [6] deals with HEK293. The experiment in a line: inhibitors of LMP1-driven NF-kB reporter, dose response, cell-based, HEK293, luciferase, cherry-pick (AID 588343). Type of test: functional. Conditions: Homo sapiens.
Test [7] has as its target T1, Nuclear receptor subfamily 0 group B member 1 (Homo sapiens, UniProt P51843).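 Note: HEK293T cells transfected with SF-1 and DAX-1 plus StAR promoter luciferase reporter.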
T1 sequence (P51843 whole entry): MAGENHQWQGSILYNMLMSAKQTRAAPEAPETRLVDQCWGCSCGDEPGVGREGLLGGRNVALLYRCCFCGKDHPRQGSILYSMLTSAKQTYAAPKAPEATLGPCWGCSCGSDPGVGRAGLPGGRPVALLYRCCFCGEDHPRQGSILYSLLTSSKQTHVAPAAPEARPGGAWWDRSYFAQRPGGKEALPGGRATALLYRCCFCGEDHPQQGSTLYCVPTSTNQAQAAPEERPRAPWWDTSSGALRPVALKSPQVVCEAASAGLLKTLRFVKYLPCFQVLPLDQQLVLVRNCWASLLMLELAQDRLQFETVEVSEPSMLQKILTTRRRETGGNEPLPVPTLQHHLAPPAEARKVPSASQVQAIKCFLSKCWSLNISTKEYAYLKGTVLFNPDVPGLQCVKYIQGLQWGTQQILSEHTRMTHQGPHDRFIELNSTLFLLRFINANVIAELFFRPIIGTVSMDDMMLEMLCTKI
Type of test: functional, cell-based.

The results in this text go back to ChEMBL document CHEMBL1201862, “PubChem BioAssay data set” (2004).

Activity calls are given as the source filed them. Bounds are passed on as bounds.

Beta-2 adrenergic receptor, sequence (P07550 whole entry): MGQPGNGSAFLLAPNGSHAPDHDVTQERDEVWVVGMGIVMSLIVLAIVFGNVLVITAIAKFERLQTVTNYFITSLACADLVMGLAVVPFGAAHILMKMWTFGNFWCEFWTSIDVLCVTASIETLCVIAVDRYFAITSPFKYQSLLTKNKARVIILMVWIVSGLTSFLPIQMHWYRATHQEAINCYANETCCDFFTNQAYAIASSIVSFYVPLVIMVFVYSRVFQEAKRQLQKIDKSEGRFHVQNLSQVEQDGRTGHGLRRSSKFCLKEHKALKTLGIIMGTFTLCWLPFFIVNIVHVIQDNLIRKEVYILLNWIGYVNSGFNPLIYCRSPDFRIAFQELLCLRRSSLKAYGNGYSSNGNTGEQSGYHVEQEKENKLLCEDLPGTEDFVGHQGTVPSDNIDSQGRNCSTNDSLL

As to `CCN(CC)C(=O)Cn1c2ccccc2c2nc3n(c(=O)c21)CCS3`, the AC50 in test [1] was 6.14 µM (active); in test [2], 0.596 µM (active).
For the compound `Cc1ccc(CNC(=O)CCCCn2c(=O)[nH]c3ccsc3c2=O)cc1`, the EC50 in test [3] was 10.7 µM (inactive).
Take `CN(C)c1cccc(C(=O)N/N=C/c2ccccc2F)c1`: the AC50 in test [4] was 134 µM (active); in test [6], 3.75 µM (active). Moreover, the IC50 in test [5] and in test [7] was > 67.6 µM (inactive) each time.
